From patent US20070010489A1 (priority 2002, published 2007)
Values joined by “and” are separate entries in the source; they are usually repeats but may differ in a detail not shown here. Equal entries are not always repeated. Where two headings read alike, the source gives them in different places.

Experiments:
[1] = system: mutant HIV-1 with I84V/L90M mutations; experiment: microbe, parasite or virus in culture; assay type: cell-based
[2] = system: wild-type HIV-1 strain IIIB; experiment: microbe, parasite or virus in culture; assay type: cell-based
84V90M [3] = target: T1, 84V90M (Human immunodeficiency virus type 1 group M subtype B, UniProt P04585, I572V/L578M); experiment: cell-based; parameters: species or system HIV; conditions: Cell-based assay (MT-4)
84V90M [4] = target: T1, 84V90M; assay type: biochemical, HIV; conditions: Enzymatic assay
[5] = target: T2, recombinant HIV-1 protease (Human immunodeficiency virus type 1 group M subtype B, UniProt P04585); experiment: biochemical
T2 construct: Enzyme: recombinant HIV-1 protease expressed in E. Coli; purchased Bachem California, Inc. H-9040; host or cells: E. coli

[6] = fold difference in EC50 mutant vs wild type, class symbols
[7] = Human immunodeficiency virus 1, IIIB
[8] = Human immunodeficiency virus 1, IIIB, class symbols
[9] = read-out: Anti-HIV-1 Cell Culture Activity EC50
[10] = read-out: HIV-1 protease inhibition Ki

SMILES: CCOC(=O)C(C)NP(=O)(Cc1ccc(NCC(NC(=O)OC2COC3OCCC23)C(O)CN(CC(C)C)S(=O)(=O)c2ccc(OC)cc2)cc1)NC(C)C(=O)OCC (centres unmarked)
- I84V/L90M fold change [1, 6]: − (≦3)
- EC50 [2, 7]: 50 to 500 nM

SMILES: CCOP(=O)(OCC)c1ccc(CNCC(NC(=O)OC2COC3OCCC23)C(O)CN(CC(C)C)S(=O)(=O)c2ccc(OC)cc2)cc1 (centres unmarked)
- I84V/L90M fold change [1, 6]: ++ (>10 to ≦30)
- EC50 [2, 7]: < 50 nM

SMILES: CCOP(=O)(OCC)c1ccc(CN(C)CC(NC(=O)OC2COC3OCCC23)C(O)CN(CC(C)C)S(=O)(=O)c2ccc(OC)cc2)cc1 (centres unmarked)
- I84V/L90M fold change [1, 6]: − (≦3)
- EC50 [2, 7]: < 50 nM

SMILES: COc1ccc(S(=O)(=O)N(CC(C)C)CC(O)C(Cc2ccc(CO)cc2)NC(=O)OC2COC3OCCC23)cc1 (centres unmarked)
- I84V/L90M fold change ([1]; fold change): − (≦3)
- EC50 [2, 7]: < 50 nM

SMILES: COc1ccc(S(=O)(=O)N(CCN(C)C)CC(O)C(Cc2ccc(O)cc2)NC(=O)OC2COC3OCCC23)cc1 (centres unmarked)
- I84V/L90M fold change ([1]; fold change): − (≦3)
- EC50 [2, 7]: 50 to 500 nM

SMILES: COc1ccc(S(=O)(=O)N(CCN(C)C)CC(O)C(Cc2ccc(OCc3ccccc3)cc2)NC(=O)OC2COC3OCCC23)cc1 (centres unmarked)
- I84V/L90M fold change ([1]; fold change): − (≦3)
- EC50 [2, 7]: < 50 nM

SMILES: Cc1cccc(C)c1OCC(=O)NC(Cc1ccc(OCP(=O)(OCc2ccccc2)OCc2ccccc2)cc1)C(O)CN(CC(C)C)S(=O)(=O)c1ccc(N)cc1 (centres unmarked)
- I84V/L90M fold change ([1]; fold change): − (≦3)
- EC50 [2, 7]: 50 to 500 nM

SMILES: CCOP(=O)(COc1ccc(S(=O)(=O)N(CC(C)C)CC(O)C(Cc2ccccc2)NC(=O)OC2COC3OCCC23)cc1)OCC (centres unmarked)
- I84V/L90M fold change ([1]; fold change): ++ (>10 to ≦30)
- EC50 [2, 7]: < 50 nM

SMILES: CC(C)CN(CC(O)C(Cc1ccccc1)NC(=O)OC1COC2OCCC12)S(=O)(=O)c1ccc(OCP(=O)(OCc2ccccc2)OCc2ccccc2)cc1 (centres unmarked)
- I84V/L90M fold change ([1]; fold change): +++ (>30)
- EC50 [2, 7]: 50 to 500 nM

SMILES: COc1cccc(S(=O)(=O)N(CC(C)C)CC(O)C(Cc2ccccc2)NC(=O)OC2COC3OCCC23)c1 (centres unmarked)
- I84V/L90M fold change ([1]; fold change): ++ (>10 to ≦30)
- EC50 [2, 7]: < 50 nM

SMILES: CCOP(=O)(COc1cccc(S(=O)(=O)N(CC(C)C)CC(O)C(Cc2ccccc2)NC(=O)OC2COC3OCCC23)c1)OCC (centres unmarked)
- I84V/L90M fold change ([1]; fold change): ++ (>10 to ≦30)
- EC50 [2, 7]: < 50 nM

SMILES: CC(C)CN(CC(O)C(Cc1ccccc1)NC(=O)OC1COC2OCCC12)S(=O)(=O)c1cccc(OCP(=O)(OCc2ccccc2)OCc2ccccc2)c1 (centres unmarked)
- I84V/L90M fold change ([1]; fold change): ++ (>10 to ≦30)
- EC50 [2, 7]: < 50 nM

SMILES: COc1ccc(S(=O)(=O)N(CC(C)C)CC(O)C(Cc2ccccc2)NC(=O)OC2COC3OCCC23)cc1OCP(=O)(OCc1ccccc1)OCc1ccccc1 (centres unmarked)
- I84V/L90M fold change ([1]; fold change): ++ (>10 to ≦30)

SMILES: CCOP(=O)(COc1ccc(CC2C(O)C(O)C(Cc3ccccc3)N(Cc3ccccc3)C(=O)N2Cc2ccccc2)cc1)OCC (centres unmarked)
- EC50 (84V90M [3]): 2460 nM
- IC50 (84V90M [4]): 48 nM

SMILES: CCOP(=O)(COCCCCN1C(=O)N(Cc2ccc3[nH]nc(N)c3c2)C(Cc2ccccc2)C(O)C(O)C1Cc1ccccc1)OCC (centres unmarked) [CH2OCH2PO3Et2]
- EC50 (84V90M [3]): 3300 nM
- IC50 (84V90M [4]): 123 nM

SMILES: Nc1n[nH]c2ccc(CN3C(=O)N(CCCCOCP(=O)(O)O)C(Cc4ccccc4)C(O)C(O)C3Cc3ccccc3)cc12 (centres unmarked) [CH2OCH2PO3H2]
- EC50 (84V90M [3]): > 4240 nM
- IC50 (84V90M [4]): 205 nM

SMILES: CCOC(=O)C(CC)OP(=O)(COc1ccc(CC(NC(=O)OC2COC3OCCC23)C(O)CN(CC(C)C)S(=O)(=O)c2ccc(OC)cc2)cc1)Oc1ccccc1 (centres unmarked) [Compound 5a]
- I84V/L90M fold change [1, 6]: − (≦3)
- EC50 [2, 8]: < 50 nM
- Ki ([5]; Ki (pM), class symbols): 10 to 100 pM

SMILES: CCOC(=O)C(CC)OP(=O)(COc1ccc(CC(NC(=O)OC2COC3OCCC23)C(O)CN(CC(C)C)S(=O)(=O)c2ccc(OC)cc2)cc1)Oc1ccccc1 (centres unmarked) [Compound 5b]
- Ki ([5]; Ki (pM), class symbols): 100 to 1000 pM

SMILES: CCCCN1C(=O)N(Cc2ccc3[nH]nc(N)c3c2)C(Cc2ccccc2)C(O)C(O)C1Cc1ccccc1 (centres unmarked) [DMP-851]
- EC50 (84V90M [3]): 918 nM
- IC50 (84V90M [4]): 9.4 nM

SMILES: CCOC(=O)C(CC)NP(=O)(COc1ccc(CC(NC(=O)OC2COC3OCCC23)C(O)CN(CC(C)C)S(=O)(=O)c2ccc(OC)cc2)cc1)NC(CC)C(=O)OCC (centres unmarked) [Example 16e]
- EC50 [2, 9]: 12.5 ± 3.5 nM
- Ki [5, 10]: 8.8 ± 1.7 pM

SMILES: CCOC(=O)C(CC(C)C)NP(=O)(COc1ccc(CC(NC(=O)OC2COC3OCCC23)C(O)CN(CC(C)C)S(=O)(=O)c2ccc(OC)cc2)cc1)NC(CC(C)C)C(=O)OCC (centres unmarked) [Example 16g]
- EC50 [2, 9]: 6.8 ± 0.4 nM
- Ki [5, 10]: 29 ± 9 pM

SMILES: CC(C)CN(C[C@@H](O)[C@H](Cc1ccc(OCP(=O)(Oc2ccccc2)Oc2ccccc2)cc1)NC(=O)OC1CCOC1)S(=O)(=O)c1ccc(N)cc1 (some centres unmarked) [NH2, phenol]
- I84V/L90M fold change ([1]; fold change): − (≦3)
- EC50 ([2]; read-out: EC50): 50 to 500 nM

SMILES: CCOP(=O)(COCCCN1C(=O)N(Cc2ccc3[nH]nc(N)c3c2)C(Cc2ccccc2)C(O)C(O)C1Cc1ccccc1)OCC (centres unmarked) [OCH2PO3Et2]
- EC50 (84V90M [3]): > 6000 nM
- IC50 (84V90M [4]): 157 nM

SMILES: Nc1n[nH]c2ccc(CN3C(=O)N(CCCOCP(=O)(O)O)C(Cc4ccccc4)C(O)C(O)C3Cc3ccccc3)cc12 (centres unmarked) [OCH2PO3H2]
- EC50 (84V90M [3]): > 6000 nM
- IC50 (84V90M [4]): 137 nM

SMILES: CCOP(=O)(COc1ccc(CC2C(O)C(O)C(Cc3ccc(OC)cc3)N(Cc3cccnc3)C(=O)N2Cc2cccnc2)cc1)OCC (centres unmarked) [OCH3, m-pyridine, OCH2PO3Et2]
- EC50 (84V90M [3]): 765 nM

SMILES: CCOP(=O)(COc1ccc(CC2C(O)C(O)C(Cc3ccc(O)cc3)N(Cc3ccc(O)cc3)C(=O)N2Cc2ccc(O)cc2)cc1)OCC (centres unmarked) [OH, Ph-pOH, OCH2PO3Et2]
- EC50 (84V90M [3]): 1910 nM
- IC50 (84V90M [4]): 18 nM

SMILES: COc1ccc(S(=O)(=O)N(CC(C)C)C[C@@H](O)[C@H](Cc2ccc(OCP(=O)(OCc3ccccc3)OCc3ccccc3)cc2)NC(=O)OC2CCOC2)cc1 (some centres unmarked) [OMe, OBn]
- I84V/L90M fold change ([1]; fold change): ++ (>10 to ≦30)
- EC50 ([2]; read-out: EC50): < 50 nM

SMILES: CCOP(=O)(COc1ccc(CC(NC(=O)OC2CCOC2)C(O)CN(CC(C)C)S(=O)(=O)c2ccc(OC)cc2)cc1)OCC (centres unmarked) [OMe, OEt]
- EC50 ([2]; read-out: EC50): < 50 nM
- Ki ([5]; read-out: Ki): < 10 pM and 10 to 100 pM

SMILES: COc1ccc(S(=O)(=O)N(CC(C)C)C[C@@H](O)[C@H](Cc2ccc(OCP(=O)(O)O)cc2)NC(=O)OC2CCOC2)cc1 (some centres unmarked) [OMe, OH]
- I84V/L90M fold change ([1]; fold change): +++ (>30)

SMILES: COc1ccc(S(=O)(=O)N(CC(C)C)C[C@@H](O)[C@H](Cc2ccc(OCP(=O)(Oc3ccccc3)Oc3ccccc3)cc2)NC(=O)OC2CCOC2)cc1 (some centres unmarked) [OMe, phenol]
- I84V/L90M fold change ([1]; fold change): + (>3 to ≦10)
- EC50 ([2]; read-out: EC50): < 50 nM
- Ki ([5]; read-out: Ki): < 10 pM

SMILES: COc1ccc(S(=O)(=O)N(CC(C)C)CC(O)C(Cc2ccc(OCP(=O)(OC(C)C)OC(C)C)cc2)NC(=O)OC2COC3OCCC23)cc1 (centres unmarked) [drawing 1768 R1=OiPr R2=OiPr]
- I84V/L90M fold change [1, 6]: − (≦3)

SMILES: CCOP(=O)(OCC)c1ccc(CC(NC(=O)OC2COC3OCCC23)C(O)CN(CC(C)C)S(=O)(=O)c2ccc(OC)cc2)cc1 (centres unmarked) [drawing 1770 R1=OEt R2=OEt]
- I84V/L90M fold change [1, 6]: − (≦3)
- EC50 [2, 7]: < 50 nM

SMILES: COc1ccc(S(=O)(=O)N(CC(C)C)CC(O)C(Cc2ccc(OCP(=O)(NC(C)C(=O)OC(C)C)Oc3ccccc3)cc2)NC(=O)OC2COC3OCCC23)cc1 (centres unmarked) [drawing 1774 R1=OPh R2=Ala-iPr]
- I84V/L90M fold change [1, 6]: − (≦3)

SMILES: CCOP(=O)(CCNCc1ccc(CC(NC(=O)OC2COC3OCCC23)C(O)CN(CC(C)C)S(=O)(=O)c2ccc(OC)cc2)cc1)OCC (centres unmarked) [drawing 1779 R1=Et R2=Et]
- EC50 [2, 7]: < 50 nM

SMILES: CCOP(=O)(CON=Cc1ccc(CC(NC(=O)OC2COC3OCCC23)C(O)CN(CC(C)C)S(=O)(=O)c2ccc(OC)cc2)cc1)OCC (centres unmarked) [drawing 1781 R1=Et R2=Et]
- EC50 [2, 7]: < 50 nM

SMILES: COc1ccc(S(=O)(=O)N(CC(C)C)CC(O)C(Cc2ccc(NCP(=O)(NC(C)C(=O)OC(C)C)Oc3ccccc3)cc2)NC(=O)OC2COC3OCCC23)cc1 (centres unmarked) [drawing 1820]
- EC50 [2, 8]: < 50 nM

SMILES: COc1ccc(S(=O)(=O)N(CC(C)C)CC(O)C(Cc2ccc(NCP(=O)(NC(C)C(=O)OC(C)C)Oc3ccccc3)cc2)NC(=O)OC2COC3OCCC23)cc1 (centres unmarked) [drawing 1821]
- EC50 ([2]; class symbols): 50 to 500 nM

SMILES: COc1ccc(S(=O)(=O)N(CC(C)C)CC(O)C(Cc2ccc(NCP(=O)(NC(C)C(=O)OC(C)C)Oc3ccccc3)cc2)NC(=O)OC2COC3OCCC23)cc1 (centres unmarked) [drawing 1822]
- EC50 ([2]; class symbols): < 50 nM

SMILES: CC(C)CN(CC(O)C(Cc1ccc(OCP(=O)(NC(C)C(=O)OC(C)C)Oc2ccccc2)cc1)NC(=O)OC1CCOC1)S(=O)(=O)c1ccc(N)cc1 (centres unmarked) [drawing 1864 R1=OPh R2=Ala-iPr]
- EC50 [2, 8]: 50 to 500 nM
- Ki ([5]; Ki (pM), class symbols): 10 to 100 pM

SMILES: CCCCOC(=O)C(C)NP(=O)(COc1cccc(CN2C(=O)N(Cc3ccc4[nH]nc(N)c4c3)C(Cc3ccccc3)C(O)C(O)C2Cc2ccccc2)c1)NC(C)C(=O)OCCCC (centres unmarked) [m-bis-Ala-Bu]
- EC50 (84V90M [3]): > 6000 nM

SMILES: CCOC(=O)C(C)NP(=O)(COc1cccc(CN2C(=O)N(Cc3ccc4[nH]nc(N)c4c3)C(Cc3ccccc3)C(O)C(O)C2Cc2ccccc2)c1)NC(C)C(=O)OCC (centres unmarked) [m-bis-Ala-Et]
- EC50 (84V90M [3]): > 6000 nM
